Laboratory results published in PubChem BioAssay (NCI).
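Method: 48-hour compound exposure of cells in 96-well plates, five concentrations, linear interpolation of endpoints. Here, GI50 denotes the concentration required for 50% inhibition of growth. TGI marks complete inhibition of growth.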

How the values were obtained:
Assay in all cases: inhibition of tumour cell growth, NCI panel, 48 h
K-562 leukemia = tested on: K-562 leukemia
OVCAR-5 ovarian = tested on: OVCAR-5 ovarian
SK-MEL-28 melanoma = tested on: SK-MEL-28 melanoma
HL-60(TB) leukemia = tested on: HL-60(TB) leukemia
HCC-2998 colon = tested on: HCC-2998 colon
OVCAR-3 ovarian = tested on: OVCAR-3 ovarian
CAKI-1 renal = tested on: CAKI-1 renal
A549 NSCLC = tested on: A549 NSCLC
SK-OV-3 ovarian = tested on: SK-OV-3 ovarian
DU-145 prostate = tested on: DU-145 prostate

Structure (SMILES)	TGI (K-562 leukemia) [µM]	TGI (OVCAR-5 ovarian) [µM]	TGI (SK-MEL-28 melanoma) [µM]	TGI (HL-60(TB) leukemia) [µM]	TGI (HCC-2998 colon) [µM]	TGI (OVCAR-3 ovarian) [µM]	TGI (CAKI-1 renal) [µM]	TGI (A549 NSCLC) [µM]	GI50 (SK-OV-3 ovarian) [µM]	TGI (SK-OV-3 ovarian) [µM]	GI50 (DU-145 prostate) [µM]	TGI (DU-145 prostate) [µM]	GI50 (K-562 leukemia) [µM]	GI50 (OVCAR-5 ovarian) [µM]	GI50 (SK-MEL-28 melanoma) [µM]	GI50 (HCC-2998 colon) [µM]	GI50 (OVCAR-3 ovarian) [µM]	GI50 (CAKI-1 renal) [µM]	GI50 (A549 NSCLC) [µM]	GI50 (HL-60(TB) leukemia) [µM]
NC(=O)c1ncn(C2OC(CO)C(O)C2O)c1O (stereo not drawn)	> 100	> 100	> 100	> 100	> 100	> 100	> 100	> 100												
Cc1[nH]c2cc([N+](=O)[O-])ccc2c1[N+](=O)[O-]	> 100	79	77.8	55.1	52.7	> 100	47.1	69.6												
COC(=O)c1cc2cc(/C=C3/SC(=S)N(N(C(C)=O)C(C)=O)C3=O)oc2n1Cc1ccccc1	53.7	38.1	> 100		40.5	51	40.8	45.9	37.4	89.9	20.7	73.4	22.7	19	38.4	17.3	19.5	14.2	18.1	
Cc1ccc(S(=O)(=O)C2CC2(Cl)Cl)cc1 (stereo not drawn)	> 100	> 100	> 100		> 100	52.6	86.1	> 100		> 100										
O=C(C(=CN1CCN(C(=O)c2ccco2)C1=S)C(=O)c1ccccc1)c1ccccc1	> 50		> 50	34.9		23	17.2	29.1	41.8	> 50	12.4	> 50	3.24		17.8		7.32	6.98	11.3	9.89
COc1ccc(C(O)c2ccccn2)cc1 (stereo not drawn)	> 100	> 100	> 100			> 100	> 100	> 100		> 100		> 100								
CN1CCN(c2ccc(NC3=CC(=O)c4ncncc4C3=O)cc2)CC1		0.801	3.08	0.635	2.82		2.68	2.3	1.63	3.16	0.639	1.88		0.285	1.46	1.27	0.313	1.34	0.405	0.249
CCCCOC(=O)NC(=O)c1cn(CCCOC(=O)CCCCCCCCC(=O)OCCCn2cc(C(=O)NC(=O)OCCCC)c(=O)n(C)c2=O)c(=O)n(C)c1=O	> 100	> 100	> 100	> 100	> 100	> 100	> 100	> 100												
NS(=O)(=O)c1ccc(N=Nc2c[nH]c(=O)c(O)c2)cc1	> 100	> 100	> 100	> 100		82.6	> 100	> 100		> 100		> 100								
COC(=O)[C@@]12C3=NO[C@]1(C(=O)OC)C(O[Si](C)(C)C(C)(C)C)[C@@H](OC(C)=O)[C@@H](OC(C)=O)[C@@H]2[C@@H](OCc1ccccc1)CC3 (stereo partly drawn)	> 100	> 100	> 100	> 100	> 100	> 100	> 100	> 100		> 100										
O=C(Oc1c(Cl)cc(Cl)cc1Cl)c1ccccc1Nc1ccnc(C(F)(F)F)c1	> 100	16.5	> 100	> 100		> 100	> 100	71.5					2.42	4.1	24.1		4.3	7.12	3.9	3.97
CC(=O)C1C(=O)C(=O)N(CCN2C(=O)C(=O)C(C(C)=O)C2=O)C1=O (stereo not drawn)	> 100	> 100	> 100		> 100	> 100	> 100			> 100										
O=C(NCCNCCO)c1ccc(Nc2nc3ccccc3c3occc23)cc1	6.71	23.2	58.4		5.27	22.8	33.1	30.1	15.4	36.5	14.9	30.7	3.37	10.9	23.7	2.14	6.22	17.3	15.3	
CCc1c(C)c2cc(-n3c(-c4ccc(OC)cc4)csc3=N)c(O)c(C)c2oc1=O		4.75	4.42		10.2	3.08		12.3	2.85	34.4	3	12.3		2.19	1.55	3.09	1.19		2.7	
Cc1ccc(Nc2nc(-c3ccc(-c4ccc([N+](=O)[O-])cc4)o3)cs2)cc1	> 100	> 100	> 100	> 100	97	> 100	> 100	> 100		> 100										
Cc1cc(Br)ccc1N=Nc1c(C)nn(-c2ccccc2)c1-c1ccccc1	> 100	> 100	> 100	> 100		> 100	> 100	> 100		> 100										
Cc1ccc(-c2nc3sc(C)cn3c2/C=C2\C(=O)Nc3ccc(Cl)cc32)cc1	84.1	38.5	34.5	> 100	31.1	62.8	38.2	27.8	7.05	25.1			22.8	18.8	18	15.1	24.6	17	14.1	32.3
O=C1[C@@H]2C(c3ccccc3[N+](=O)[O-])=NO[C@@H]2C(=O)N1c1ccc(Cc2ccc(N3C(=O)[C@H]4C(c5ccccc5[N+](=O)[O-])=NO[C@H]4C3=O)cc2)cc1	> 100	> 100	> 100		> 100	> 100	> 100													
